{"source": "patent US20140315972A1", "about": "“RS)-2-(2-oxo-4-phenylpyrrolidin-1-yl)acetamide compound having modulatory activity with a commensurate effect, pharmaceutical substance (variants) and its application, composition (variants) thereof” (priority 2011, published 2014)", "key": {"rats [1]": {"test_system": "rats", "assay": "Hypotensive activity in rats (cannula in carotid artery)", "format": "in vivo", "conditions": "adult rats; i.p. and intragastric 50-100 mg/kg; one hour after administration", "method": "Study of the effect of Phenotropil on cerebral blood flow, systemic blood pressure (BP) and the nervous regulation of blood circulation was made on 6 anesthetized cats under general anesthesia (urethane+chloralose). Phenotropil was administered intravenously at a dose of 50 mg/kg with distilled water; the baseline state of each animal prior to drug administration served as control. Cerebral blood flow was recorded in the common carotid artery (CCA) by an electromagnetic meter. The nervous regulation of cerebral circulation was judged by the vasomotor pressor reflex (VPR). The results of the experiment show (Table 6.1) that the racemic compound causes a moderate increase in cerebral blood flow in anesthetized animals. The cerebrovascular effect is accompanied by vascular hypotension with manifestation of oppression of the vasomotor reflex. The biphasic behaviour of SBP is consistent with the pattern of the effect on TSIP under no abnormalities with stabilization of the normotonic state. At intraperitoneal and intragastric administration of Phenotropil (25-300 mg/kg) to white outbred adult rats of both sexes, hypotensive activity (by blood method through the cannula connected to the carotid artery) was manifested one hour after administration at doses of 50-100 mg/kg and was in average 13%±2.85, while with increasing doses this effect disappears. […]"}, "rats [2]": {"test_system": "rats", "assay": "Training ability of immature under-trained rats in the CRPA test", "format": "in vivo", "conditions": "for LP1 (training) / LP2 (at 24 h) / ΔLP: under-trained rats 30-35 days", "method": "In studying immature animals, it must be considered that to generate CRPA it is required, as was established, to apply higher educational incentives (0.6 mA, 8 pulses vs 5 pulses at 0.45 mA in adult rats) with re-training (after 48 hours). Development of amnesia also requires a higher dose of scopolamine (1.3 mg/kg) in rat pups. […] Phenotropil has not only a psychomodulatory (Ψ-modulatory) activity but also a Ψ-operandmodulatory activity given that the mnemotropic effect is associated with the expression of specific proteins and genes involved in memory, attention and learning."}, "rats [3]": {"test_system": "rats", "assay": "14-day immobilization in antiorthostatic position (Ds), thymus, spleen, adrenal mass ratios Kt", "format": "in vivo", "conditions": "Ds-conditions; for S/A: spleen/adrenals ratio (mg/100 g baseline body weight); for S/T: spleen/thymus ratio (mg/100 g baseline body weight); for T/A: thymus/adrenals ratio (mg/100 g baseline body weight)"}, "mice [4]": {"test_system": "mice", "assay": "Maximum life span (MLS) of mice", "format": "in vivo", "conditions": "for The maximum life span (number of days in %): mice, change vs untreated control = 100", "method": "The maximum life span (MLS) of mice according to our long-term statistical observations is 2.7-3, 2 years, i.e. in average 2.95 years or 1077 days. For this study we selected mice (10 individuals per group), males with dominant behavior in mixed groups, that safely survived to 985 days without signs of pronounced senility and with satisfactory orientation-exploratory behavior, determined by the “open field test” method. Phenotropil in doses of 25, 50 and 100 mg/kg was administered orally with 5.0% glucose solution. Glucose solution was used solely to improve the solubility of the drug. One control group received the glucose solution and the second one—distilled water. The third control group was not treated."}, "male subjects": {"test_system": "male subjects", "assay": "Anti-seasick (anti-kinetosis) activity, visual-vestibular effects", "format": "in vivo, human", "method": "Investigations of the anti-seasick (anti-kinetosis) activity of agents with creation of visual-vestibular effects modeling motion sickness were performed on male subjects (23-35 years). Test with continuous exposure to the Coriolis acceleration was performed by rotating vestibulometric chair with angular velocity 180°/s. The eyes of the subject were open, while the optokinetic drum rotated in one direction with the chair with a speed of 90°/s. The time of visual-vestibular effect, vestibulo-vegetative reactions, optokinetic nystagmus before and after kinesia was determined when the drum rotated alternately for two minutes in the R- and S-directions at a speed of 90° s, with a break for 1 minute between rotations, as well as the severity of vestibular effects was measured and the Km was calculated. The studies were conducted 60 minutes after administration of Phenotropil in doses of 25, 50, 100 and 300 mg. Baseline state values and placebo values served as control. Alternate approaches for each participant were performed a week after each previous test. The modulation factor under normal conditions without exposure was 0.97."}, "mice [5]": {"test_system": "mice", "conditions": "animals; prior art Phenotropil products; cited from earlier work"}, "[6]": {"conditions": "male subjects, 25, 50, 100, 300 mg"}}, "note": "Marks after values point to notes of the source that are not given here.", "data": [{"smiles": "NC(=O)CN1CC(c2ccccc2)CC1=O", "note": "(racemic) [Compound 1, (RS)-2-(2-oxo-4-phenylpyrrolidine-1-yl)acetamide]", "values": [{"measurement": "hypotensive activity, average", "setting": "rats [1]", "value": "13%±2.85"}, {"measurement": "mnemotropic effect by ΔLP index versus saline treated control", "setting": "rats [2]; 50 mg/kg", "value": "+133%"}, {"measurement": "mnemotropic effect by ΔLP index versus saline treated control", "setting": "rats [2]; 100 mg/kg", "value": "+504%"}, {"measurement": "mnemotropic effect by ΔLP index versus saline treated control", "setting": "rats [2]; 300 mg/kg", "value": "+696%"}, {"measurement": "LP1 (training)", "setting": "rats [2]; intragastric 50 mg/kg", "value": "7.2 ± 2.1"}, {"measurement": "LP2 (at 24 h)", "setting": "rats [2]; intragastric 50 mg/kg", "value": "18.4 ± 4.6"}, {"measurement": "ΔLP", "setting": "rats [2]; intragastric 50 mg/kg", "value": "11.2 ± 3.4"}, {"measurement": "LP1 (training)", "setting": "rats [2]; intragastric 100 mg/kg", "value": "7.2 ± 2.1"}, {"measurement": "LP2 (at 24 h)", "setting": "rats [2]; intragastric 100 mg/kg", "value": "36.2 ± 4.6"}, {"measurement": "ΔLP", "setting": "rats [2]; intragastric 100 mg/kg", "value": "29.0 ± 3.4"}, {"measurement": "LP1 (training)", "setting": "rats [2]; intragastric 300 mg/kg", "value": "6.8 ± 1.2^"}, {"measurement": "LP2 (at 24 h)", "setting": "rats [2]; intragastric 300 mg/kg", "value": "45.0 ± 7.5"}, {"measurement": "ΔLP", "setting": "rats [2]; intragastric 300 mg/kg", "value": "38.2 ± 4.4"}, {"measurement": "S/A", "setting": "rats [3]; 25 mg/kg", "value": "7.6 ± 1.2"}, {"measurement": "S/T", "setting": "rats [3]; 25 mg/kg", "value": "2.2 ± 0.1"}, {"measurement": "T/A", "setting": "rats [3]; 25 mg/kg", "value": "5.5 ± 1.1"}, {"measurement": "S/A", "setting": "rats [3]; 50 mg/kg", "value": "8.2 ± 1.2"}, {"measurement": "S/T", "setting": "rats [3]; 50 mg/kg", "value": "1.6 ± 0.1"}, {"measurement": "T/A", "setting": "rats [3]; 50 mg/kg", "value": "6.6 ± 1.1"}, {"measurement": "S/A", "setting": "rats [3]; 100 mg/kg", "value": "8.8 ± 1.2"}, {"measurement": "S/T", "setting": "rats [3]; 100 mg/kg", "value": "1.2 ± 0.2"}, {"measurement": "T/A", "setting": "rats [3]; 100 mg/kg", "value": "5.5 ± 1.1"}, {"measurement": "increase of maximum life span", "setting": "mice [4]; 25 mg/kg", "value": 23.3, "unit": "%"}, {"measurement": "increase of maximum life span", "setting": "mice [4]; 100 mg/kg", "value": 24.0, "unit": "%"}, {"measurement": "increase of life span, average of all experimental groups", "setting": "mice [4]; male mice aged 985 days, 25, 50, 100 mg/kg orally", "value": 22.0, "unit": "%"}, {"measurement": "The maximum life span (number of days in %)", "setting": "mice [4]; 25 mg/kg + 5.0% glucose solution", "value": "+20.1 * %"}, {"measurement": "The maximum life span (number of days in %)", "setting": "mice [4]; 50 mg/kg + 5.0% glucose solution", "value": "+15.0 * %"}, {"measurement": "The maximum life span (number of days in %)", "setting": "mice [4]; 100 mg + 5.0% glucose solution", "value": "+20.8 * %"}, {"measurement": "NEE, negative effects of exposure", "setting": "male subjects; humans, 25-300 mg", "value": "22.5 ± 7.5", "unit": "min"}, {"measurement": "VVE, tolerability of the visual-vestibular effects", "setting": "male subjects; humans, 25-300 mg", "value": "7.70 ± 0.6", "unit": "min"}, {"measurement": "VVR, severity of the vestibulo-vegetative reactions", "setting": "male subjects; humans, 25-300 mg", "value": "2.3 ± 0.9", "unit": "points"}, {"measurement": "improvement of visual-vestibular tolerability vs placebo, average", "setting": "male subjects; [6]", "value": "+80%"}, {"measurement": "reduction in severity of vestibulo-vegetative reactions vs placebo, average", "setting": "male subjects; [6]", "value": 68, "unit": "%"}, {"measurement": "duration of negative consequences condition", "setting": "male subjects; male subjects, placebo 4-6 hours", "value": "15 to 30", "unit": "min"}, {"measurement": "LD50", "setting": "mice [5]", "value": 800, "unit": "mg/kg"}]}]}
